Biological target: T1, p38α (Homo sapiens, UniProt Q16539)
T1 construct: p38 MAP Kinases are recombinant human full-length proteins with an amino-terminal GST fusion; GST (N); purchased Upstate Biotechnology Inc; host or cells: E. coli
Experiment: p38 MAP Kinase assay: inhibition of ATF2 phosphorylation, ELISA
Format: biochemical
Details: for inhibition at 10 µM: substrate ATF2, read-out: [ENZ] P38 ALPHA, PCT INH, ELISA (10 uM;ATF2) (Percent); for IC50: ATF2 phosphorylation, read-out: [ENZ] P38 ALPHA, IC50, ELISA
Description: Compounds of the invention are screened for the ability to inhibit ATF2 phosphorylation by p38 MAP Kinase in vitro. The ability of compounds to inhibit ATF2 phosphorylation in this in vitro assay is correlated with the inhibition of p38 MAP Kinase and TNFα expression in vivo, and is therefore an indicator of potential in vivo therapeutic activity (Raingeaud, J., et al, J. Biol. Chem., 270: 7420-7426, 1995, Brinkman, M. N., et al, J. Biol. Chem. 274: 30882-30886, 1999 and Fuchs, S. Y. et al, J. Biol. Chem. 275: 12560-12564, 2000).
Materials: All kinases and the substrate ATF2 are acquired from Upstate Biotechnology Inc. p38 MAP Kinases are recombinant human full-length proteins with an amino-terminal GST fusion, expressed in and purified from E. coli. ATF2 is a GST fusion protein containing amino acids 19-96 of human ATF2 expressed in E. coli. All proteins are aliquoted and stored at −80° C.
Methods: p38 MAP Kinase assays are performed using an assay buffer containing 25 mM HEPES, pH 7.5, 10 mM MgCl2, 2 mM DTT, 20 mM β-glycerophosphate, 0.1 mM Na3VO4, 40 μM ATP and 1.25 μM of ATF2 and in the absence or presence of 1% human serum albumin, Method I and II, respectively, with 0.4-6 ng of protein depending on the kinase used. Compounds are serially diluted in DMSO and 2 μL of test compound at 25× final concentration is used. The vehicle control receives DMSO only. Test compounds are pre-incubated with 20 μl of enzyme in kinase buffer (25 mM HEPES, pH 7.5, 10 mM MgCl2, 2 mM DTT, 20 mM β-glycerophosphate, 0.1 mM Na3VO4 in the absence or presence of 1% human serum albumin, Method I and II, respectively) at room temperature for 15 minutes. […] The reactions are incubated for 30 minutes at 37° C. and terminated by the addition of 18 μl of 200 mM EDTA. An ELISA method (I or II) is used to measure the phosphorylation of ATF2 at Thr 69. Method I: 96-well high binding plates (Corning 3369) are coated with 50 μl of kinase reaction for 1 hour at 37° C. The coated plates are washed with 200 μl washing buffer (25 mM Tris HCl, pH 8.3, 192 mM glycine, 0.1% SDS and 0.05% Tween-20) three times. The plates are then washed three times with SuperBlock in TBS (Pierce, 37535). After blocking, plates are incubated with 50 μl of rabbit anti-phospho-ATF2 antibody (Cell Signaling, 9221L, 1:500) for 30 minutes at 37° C. Plates are washed three times with washing buffer prior to incubation with 50 μl HRP-conjugated goat anti-rabbit antibody (Cell Signaling, 7074, 1:500) for 30 minutes at 37° C. Plates are then washed three times with washing buffer before incubation with 50 μl of Ultra TMB-ELISA (Pierce, 34028) for 8 minutes at room temperature. Finally, 50 ul of phosphoric acid (1 M) is added to stop reactions and plate absorbance is read at 450 nm on a SpectraMax 250 plate reader. Method II: 96-well high binding plates (Corning 3369) are coated with 400 ng of monoclonal antibody against GST-tag (Cell signaling) in 100 μl containing sodium borate (pH 8.3) for 90 minutes at 37° C. The plates are washed with 200 μl washing buffer (25 mM Tris HCl, pH 7.2, 150 mM NaCl and Tween-20) three times and blocked with 200 μl of 5% nonfat milk for 30 minutes at room temperature. The plates are washed three times with washing buffer, 50 μl of stopped kinase reaction are added to each well and incubated for 80 minutes at 37° C. The plates are washed three times with 200 μl washing buffer, and the plates are incubated with 50 μl of rabbit anti-phospho-ATF2 antibody (Cell Signaling, 9221L, 1:500) for 30 minutes at 37° C. Plates are washed three times with washing buffer prior to incubation with 50 μl HRP-conjugated goat anti-rabbit antibody (Cell Signaling, 7074, 1:500) for 30 minutes at 37° C. Plates are washed three times with washing buffer before incubation with 50 μl of Ultra TMB-ELISA (Pierce, 34028) for 25 minutes at room temperature. Finally, 50 μl of phosphoric acid (1 M) is added to stop reactions and plate absorbance is read at 450 nm on a SpectraMax 250 plate reader. […]

T1 sequence (Q16539 whole entry, the tested form may be a part): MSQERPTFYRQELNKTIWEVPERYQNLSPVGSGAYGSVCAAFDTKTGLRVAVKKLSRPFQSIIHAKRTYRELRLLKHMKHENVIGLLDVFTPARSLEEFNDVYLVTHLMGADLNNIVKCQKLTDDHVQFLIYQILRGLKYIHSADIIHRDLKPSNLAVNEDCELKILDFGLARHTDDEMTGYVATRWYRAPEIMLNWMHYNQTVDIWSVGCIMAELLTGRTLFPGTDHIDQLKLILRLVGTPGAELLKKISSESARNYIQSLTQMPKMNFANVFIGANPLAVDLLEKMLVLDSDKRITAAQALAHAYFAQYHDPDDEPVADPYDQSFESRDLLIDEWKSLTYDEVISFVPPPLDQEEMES

SMILES	inhibition at 10 µM	IC50
CN1CCN(CCOc2ccc(NC(=O)c3ccnc(Cl)c3)c3ccccc23)CC1 [Compound B6]	7.5%	
O=C(Nc1ccc(OCCN2CCCCC2)c2ccccc12)c1ccnc(Cl)c1 [Compound B7]	21%	
C[C@@H]1CN(CCOc2ccc(NC(=O)c3ccnc(Cl)c3)c3ccccc23)C[C@H](C)O1 [Compound B8]	36.5%	
CN1CCN(CCOc2ccc(NC(=O)c3ccc(-n4ccc(C(F)(F)F)n4)cc3)c3ccccc23)CC1 [Compound B9]	21%	
O=C(Nc1ccc(OCCN2CCCCC2)c2ccccc12)c1ccc(-n2ccc(C(F)(F)F)n2)cc1 [Compound B10]	12.5%	
O=C(Nc1ccc(OCCN2CCSCC2)c2ccccc12)c1ccc(-n2cccn2)cc1 [Compound B11]	24%	
C[C@@H]1CN(CCOc2ccc(NC(=O)c3ccc(-n4cccn4)cc3)c3ccccc23)C[C@H](C)O1 [Compound B12]	16.5%	
CN1CCN(CCOc2ccc(NC(=O)c3ccc(CN4CCS(=O)(=O)CC4)cc3)c3ccccc23)CC1 [Compound B13]	11.5%	
O=C(Nc1ccc(OCCN2CCCCC2)c2ccccc12)c1ccc(CN2CCS(=O)(=O)CC2)cc1 [Compound B14]	6%	
CCOC(=O)N1CCN(CCOc2ccc(NC(=O)c3cccc(N4CCOCC4)c3)c3ccccc23)CC1 [Compound B15]	18%	
CCOC(=O)N1CCN(CCOc2ccc(NC(=O)c3ccc(CN4CCS(=O)(=O)CC4)cc3)c3ccccc23)CC1 [Compound B16]	27.5%	
O=C(Nc1ccc(OCCN2CCSCC2)c2ccccc12)c1ccc(CN2CCS(=O)(=O)CC2)cc1 [Compound B17]	30.5%	
O=C(Nc1ccc(OCCN2CCOCC2)c2ccccc12)c1ccc(CN2CCS(=O)(=O)CC2)cc1 [Compound B18]	10.5%	
O=C(Nc1ccc(OCCN2CCCCC2)c2ccccc12)c1ccnc(N2CCOCC2)c1 [Compound B22]	12.5%	
C[C@@H]1CN(CCOc2ccc(NC(=O)c3ccnc(N4CCOCC4)c3)c3ccccc23)C[C@H](C)O1 [Compound B23]	38%	
O=C(Nc1ccc(OCCN2CCOCC2)c2ccccc12)c1cccc(N2CCC(N3CCCCC3)CC2)n1 [Compound B70]	14%	
O=C(Nc1ccc(OCCN2CCOCC2)c2ccccc12)c1cccc(N2CCC(c3ccccc3)CC2)n1 [Compound B72]	0%	
O=C(Nc1ccc(OCCN2CCOCC2)c2ccccc12)c1cccc(-c2ccc(OC(F)(F)F)cc2)c1 [Compound B87, 4′-Trifluoromethoxy-biphenyl-3-carboxylic acid [4-(2-morpholin-4-yl-ethoxy)-naphthalen-1-yl]-amide]	29%	> 100 µM
O=C(Nc1ccc(OCCN2CCOCC2)c2ccccc12)c1cccc(-c2cc(C(F)(F)F)cc(C(F)(F)F)c2)c1 [Compound B92]	0%	

Other lines, results leading:

inhibition at 10 µM	IC50	SMILES
19.5%		CN1CCN(CCOc2ccc(NC(=O)c3ccnc(N4CCOCC4)c3)c3ccccc23)CC1 [Compound B21]
3%		Cc1cc(C(=O)Nc2ccc(OCCN3CCOCC3)c3ccccc23)cc(Cl)n1 [Compound B64]
10%		CN(C)CCN(C)c1cc(F)cc(C(=O)Nc2ccc(OCCN3CCOCC3)c3ccccc23)c1 [Compound B68]
34%		CC1CCCN(c2cccc(C(=O)Nc3ccc(OCCN4CCOCC4)c4ccccc34)n2)C1 (centres unmarked) [Compound B69]
10%		O=C(Nc1ccc(OCCN2CCOCC2)c2ccccc12)c1cccc(C(F)(F)F)c1 [Compound B73]
31%		O=C(Nc1ccc(OCCN2CCOCC2)c2ccccc12)c1cccc2c1C(=O)c1ccccc1-2 [Compound B74]
27%	> 10 µM	O=C(Nc1ccc(OCCN2CCOCC2)c2ccccc12)c1cccc2c1Cc1ccccc1-2 [Compound B75]
0%		CC(C)c1cc(C(=O)Nc2ccc(OCCN3CCOCC3)c3ccccc23)c(O)c(C(C)C)c1 [Compound B76]
28%		O=C(Nc1ccc(OCCN2CCOCC2)c2ccccc12)c1cc(F)cc(C(F)(F)F)c1 [Compound B77]
34%	> 10 µM	O=C(Nc1ccc(OCCN2CCOCC2)c2ccccc12)c1cccc(C(=O)c2ccccc2)c1 [Compound B78]
1%		Cc1cc(C(=O)Nc2ccc(OCCN3CCOCC3)c3ccccc23)nn1C [Compound B79]
9%		CCn1nc(C)cc1C(=O)Nc1ccc(OCCN2CCOCC2)c2ccccc12 [Compound B80]
6%		O=C(Nc1ccc(OCCN2CCOCC2)c2ccccc12)C1=CC=CC(C(F)(F)F)C1Cl (centres unmarked) [Compound B81]
18%		O=C(Nc1ccc(OCCN2CCOCC2)c2ccccc12)c1cc(C(F)(F)F)cc(C(F)(F)F)c1 [Compound B83]
29%		O=C(Nc1ccc(OCCN2CCOCC2)c2ccccc12)c1cccc2ccccc12 [Compound B89]
34%	> 10 µM	Cc1ccc(-c2cccc(C(=O)Nc3ccc(OCCN4CCOCC4)c4ccccc34)c2)cc1 [Compound B93]
71%	1.14 µM	O=C(Nc1ccc(OCCN2CCOCC2)c2ccccc12)c1cccc(-c2cccc(Cl)c2)c1 [Compound B94]
58%	1.75 µM	O=C(Nc1ccc(OCCN2CCOCC2)c2ccccc12)c1cccc(-c2ccc(Cl)cc2Cl)c1 [Compound B95]
31%	> 100 µM	O=C(Nc1ccc(OCCN2CCOCC2)c2ccccc12)c1cccc(-c2cc(Cl)cc(Cl)c2)c1 [Compound B96]
31%	> 10 µM	O=C(Nc1ccc(OCCN2CCOCC2)c2ccccc12)c1cccc(-c2ccccc2C(F)(F)F)c1 [Compound B97]
15%	> 10 µM	O=C(Nc1ccc(OCCN2CCOCC2)c2ccccc12)c1cccc(/C=C/c2ccccc2)c1 [Compound B98]
21%	> 100 µM	CCc1ccc(-c2cccc(C(=O)Nc3ccc(OCCN4CCOCC4)c4ccccc34)c2)cc1 [Compound B102]
68%	1.63 µM	O=C(Nc1ccc(OCCN2CCOCC2)c2ccccc12)c1cccc(-c2cc(F)cc(F)c2)c1 [Compound B103]
0%		CC(C)(C)c1ccc(-c2cccc(C(=O)Nc3ccc(OCCN4CCOCC4)c4ccccc34)c2)cc1 [Compound B106]
2%		CCOc1ccc(-c2cccc(C(=O)Nc3ccc(OCCN4CCOCC4)c4ccccc34)c2)cc1 [Compound B107]
52%	4.07 µM	CCOc1ccccc1-c1cccc(C(=O)Nc2ccc(OCCN3CCOCC3)c3ccccc23)c1 [Compound B109]
50%	5.06 µM	COc1ccc(Cl)cc1-c1cccc(C(=O)Nc2ccc(OCCN3CCOCC3)c3ccccc23)c1 [Compound B111]

— patent US7829560B2, “1,4-disubstituted naphthalenes as inhibitors of P38 MAP kinase” (Arqule, Inc., priority 2004, dated 2010)
